Our source for the IC50 values is patent publication US10005774B2, “Syk inhibitors” (Gilead Sciences, Inc., priority 2013, dated 2018).

The assay has as its target Syk (Homo sapiens, UniProt P43405). Put plainly: High Throughput Syk Biochemical Assay (KinEASE TR-FRET). The following applies: TABLE D, 20 μM ATP, 1 μM biotinylated peptide, 0.015 nM Syk, 30 min at room temperature, read-out: IC50. Here is the method:
High Throughput Syk Biochemical Assay
Syk activity was measured using KinEASE (Cisbio), a time-resolved fluorescence resonance energy transfer (TR-FRET) immunoassay. In this assay. Syk-catalyzes the phosporylation of a XL665-labeled peptide substrate. Europium conjugated phospho-tyrosine specific antibody binds the resulting phosphorylated peptide. Formation of phosphorylated peptide is quantified by TR-FRET with Europium as the donor and XL665 the acceptor in a 2-step endpoint assay. In brief, test compounds serially diluted in DMSO were delivered into Corning white, low volume, non-binding 384 well plates using the Echo 550 acoustic liquid dispenser (Labcyte®). Syk enzyme and substrates were dispensed into assay plates using a Multi-Flo (Bio-Tek Instruments). […] Percent inhibition was calculated as follows: % Inhibition=100×(RatioSample−Ratio0% Inhibition)/(Ratio100% Inhibition−Ratio0% Inhibition)
`C[C@@H](Oc1nc(-c2ccc(S(C)(=O)=O)cc2)cc2ncn(C)c12)[C@H]1CNC(=O)C1` [(R)-4-((R)-1-(3-methyl-6-(4-(methylsulfonyl)phenyl)-3H-imidazo[4,5-c]pyridin-4-yloxy)ethyl)pyrrolidin-2-one]: the IC50 (as a rule, the concentration that inhibits the measured activity by half) is 27.7 nM.
In the case of `C[C@@H](Oc1nc(-c2ccc(N3CCNCC3)cc2)cc2ncn(C)c12)[C@H]1CNC(=O)C1` [(R)-4-((R)-1-(3-methyl-6-(4-(piperazin-1-yl)phenyl)-3H-imidazo[4,5-c]pyridin-4-yloxy)ethyl)pyrrolidin-2-one], the IC50 was found to be 8.28 nM.
Turning to `C[C@@H](Oc1nc(-c2ccc3c(c2)N(C)CCO3)cc2ncn(C)c12)[C@H]1CNC(=O)C1` [(R)-4-((R)-1-(3-methyl-6-(4-methyl-3,4-dihydro-2H-benzo[b][1,4]oxazin-6-yl)-3H-imidazo[4,5-c]pyridin-4-yloxy)ethyl)pyrrolidin-2-one], the half-maximal inhibitory concentration (IC50) worked out at 13.5 nM.
`C[C@@H](Oc1nc(-c2ccc3c(c2)OCCN3C)cc2ncn(C)c12)[C@H]1CNC(=O)C1` [(R)-4-((R)-1-(3-methyl-6-(4-methyl-3,4-dihydro-2H-benzo[b][1,4]oxazin-7-yl)-3H-imidazo[4,5-c]pyridin-4-yloxy)ethyl)pyrrolidin-2-one]: the IC50 was 8.93 nM.
With `C[C@@H](Oc1nc(-c2ccc(N3CCOCC3)cc2)cc2ncn(C)c12)[C@H]1CNC(=O)C1` [(R)-4-((R)-1-(3-methyl-6-(4-morpholinophenyl)-3H-imidazo[4,5-c]pyridin-4-yloxy)ethyl)pyrrolidin-2-one], the half-inhibitory concentration (IC50) came to 4.6 nM.
On to `Cc1cc(-c2cc3ncn(C)c3c(O[C@H](C)[C@H]3CNC(=O)C3)n2)n[nH]1` [(R)-4-((R)-1-(3-methyl-6-(5-methyl-1H-pyrazol-3-yl)-3H-imidazo[4,5-c]pyridin-4-yloxy)ethyl)pyrrolidin-2-one], for which the IC50 amounted to 22.8 nM.
On to `C[C@@H](Oc1nc(-c2cnn3ccccc23)cc2ncn(C)c12)[C@H]1CNC(=O)C1` [(R)-4-((R)-1-(3-methyl-6-(pyrazolo[1,5-a]pyridin-3-yl)-3H-imidazo[4,5-c]pyridin-4-yloxy)ethyl)pyrrolidin-2-one], for which the IC50 was found to be 12.7 nM.
As to `C[C@@H](Oc1nc(-c2ccccc2)cc2ncn(C)c12)[C@H]1CNC(=O)C1` [(R)-4-((R)-1-(3-methyl-6-phenyl-3H-imidazo[4,5-c]pyridin-4-yloxy)ethyl)pyrrolidin-2-one], the IC50 is 33.8 nM.
Consider `C[C@@H](Oc1cc(-c2cc3c(cnn3C)s2)cc2ncsc12)[C@H]1CNC(=O)C1` [(R)-4-((R)-1-(5-(1-methyl-1H-thieno[3,2-c]pyrazol-5-yl)benzo[d]thiazol-7-yloxy)ethyl)pyrrolidin-2-one], for which the IC50 was 7.68 nM.
Consider `Cc1c(-c2cc3ncn(C)c3c(O[C@H](C)[C@H]3CNC(=O)C3)n2)cnn1C` [(R)-4-((R)-1-(6-(1,5-dimethyl-1H-pyrazol-4-yl)-3-methyl-3H-imidazo[4,5-c]pyridin-4-yloxy)ethyl)pyrrolidin-2-one], for which the IC50 was 41.7 nM.
Take `C[C@@H](Oc1nc(-c2cnn(CC(F)F)c2)cc2ncn(C(F)F)c12)[C@H]1CNC(=O)C1` [(R)-4-((R)-1-(6-(1-(2,2-difluoroethyl)-1H-pyrazol-4-yl)-3-(difluoromethyl)-3H-imidazo[4,5-c]pyridin-4-yloxy)ethyl)pyrrolidin-2-one]: the IC50 is 3.31 nM.
For `C[C@@H](Oc1nc(-c2cnn(CC(F)F)c2)cc2ncn(C)c12)[C@H]1CNC(=O)C1` [(R)-4-((R)-1-(6-(1-(2,2-difluoroethyl)-1H-pyrazol-4-yl)-3-methyl-3H-imidazo[4,5-c]pyridin-4-yloxy)ethyl)pyrrolidin-2-one], the IC50 was 17.7 nM.
As to `C[C@@H](Oc1nc(-c2cnn(CCF)c2)cc2ncn(C)c12)[C@H]1CNC(=O)C1` [(R)-4-((R)-1-(6-(1-(2-fluoroethyl)-1H-pyrazol-4-yl)-3-methyl-3H-imidazo[4,5-c]pyridin-4-yloxy)ethyl)pyrrolidin-2-one], the IC50 was found to be 13.2 nM.
For `C[C@@H](Oc1nc(-c2cnn(C(F)F)c2)cc2ncn(C)c12)[C@H]1CNC(=O)C1` [(R)-4-((R)-1-(6-(1-(difluoromethyl)-1H-pyrazol-4-yl)-3-methyl-3H-imidazo[4,5-c]pyridin-4-yloxy)ethyl)pyrrolidin-2-one], the IC50 turned out to be 32.8 nM.
With `C[C@@H](Oc1nc(-c2cnn(C3CCC3)c2)cc2ncn(C)c12)[C@H]1CNC(=O)C1` [(R)-4-((R)-1-(6-(1-cyclobutyl-1H-pyrazol-4-yl)-3-methyl-3H-imidazo[4,5-c]pyridin-4-yloxy)ethyl)pyrrolidin-2-one], the IC50 was 7.62 nM.
For `C[C@@H](Oc1nc(-c2cnn(C3CC3)c2)cc2ncn(C)c12)[C@H]1CNC(=O)C1` [(R)-4-((R)-1-(6-(1-cyclopropyl-1H-pyrazol-4-yl)-3-methyl-3H-imidazo[4,5-c]pyridin-4-yloxy)ethyl)pyrrolidin-2-one], the IC50 amounted to 14 nM.
As to `CC(C)Cn1cc(-c2cc3ncn(C)c3c(O[C@H](C)[C@H]3CNC(=O)C3)n2)cn1` [(R)-4-((R)-1-(6-(1-isobutyl-1H-pyrazol-4-yl)-3-methyl-3H-imidazo[4,5-c]pyridin-4-yloxy)ethyl)pyrrolidin-2-one], the half-maximal inhibitory concentration (IC50) came out at 15.9 nM.
`CC(C)n1cc(-c2cc3ncn(C)c3c(O[C@H](C)[C@H]3CNC(=O)C3)n2)cn1` [(R)-4-((R)-1-(6-(1-isopropyl-1H-pyrazol-4-yl)-3-methyl-3H-imidazo[4,5-c]pyridin-4-yloxy)ethyl)pyrrolidin-2-one]: the IC50 is 8.65 nM.
On to `CC(C)n1cc(-c2cc(O[C@H](C)[C@H]3CNC(=O)C3)c3ccnn3c2)cn1` [(R)-4-((R)-1-(6-(1-isopropyl-1H-pyrazol-4-yl)pyrazolo[1,5-a]pyridin-4-yloxy)ethyl)pyrrolidin-2-one], for which the half-maximal inhibitory concentration (IC50) is 4.15 nM.
For `C[C@@H](Oc1nc(-c2cnn(C(C)(C)C)c2)cc2ncn(C(F)F)c12)[C@H]1CNC(=O)C1` [(R)-4-((R)-1-(6-(1-tert-butyl-1H-pyrazol-4-yl)-3-(difluoromethyl)-3H-imidazo[4,5-c]pyridin-4-yloxy)ethyl)pyrrolidin-2-one], the IC50 was 1.22 nM.
The value for `Cn1cnc2cc(-c3cnn(C(C)(C)C)c3)nc(O[C@H](CC(F)F)[C@H]3CNC(=O)C3)c21` [(R)-4-((R)-1-(6-(1-tert-butyl-1H-pyrazol-4-yl)-3-methyl-3H-imidazo[4,5-c]pyridin-4-yloxy)-3,3-difluoropropyl)pyrrolidin-2-one] was 94.8 nM.
Consider `COCC[C@@H](Oc1nc(-c2cnn(C(C)(C)C)c2)cc2ncn(C)c12)[C@H]1CNC(=O)C1` [(R)-4-((R)-1-(6-(1-tert-butyl-1H-pyrazol-4-yl)-3-methyl-3H-imidazo[4,5-c]pyridin-4-yloxy)-3-methoxypropyl)pyrrolidin-2-one], for which the half-maximal inhibitory concentration (IC50) is 171 nM.
For `C[C@@H](Oc1nc(-c2cnn(C(C)(C)C)c2)cc2ncn(C)c12)[C@H]1CNC(=O)C1` [(R)-4-((R)-1-(6-(1-tert-butyl-1H-pyrazol-4-yl)-3-methyl-3H-imidazo[4,5-c]pyridin-4-yloxy)ethyl)pyrrolidin-2-one], the IC50 amounted to 4.9 nM.
As to `CC[C@@H](Oc1nc(-c2cnn(C(C)(C)C)c2)cc2ncn(C)c12)[C@H]1CNC(=O)C1` [(R)-4-((R)-1-(6-(1-tert-butyl-1H-pyrazol-4-yl)-3-methyl-3H-imidazo[4,5-c]pyridin-4-yloxy)propyl)pyrrolidin-2-one], the IC50 came out at 24 nM.
As for `C[C@@H](Oc1nc(-c2ccc3c(c2)OC(F)(F)O3)cc2ncn(C)c12)[C@H]1CNC(=O)C1` [(R)-4-((R)-1-(6-(2,2-difluorobenzo[d][1,3]dioxol-5-yl)-3-methyl-3H-imidazo[4,5-c]pyridin-4-yloxy)ethyl)pyrrolidin-2-one], the IC50 is 148 nM.
Take `C[C@@H](Oc1nc(-c2csc(C(C)(C)C)n2)cc2ncn(C)c12)[C@H]1CNC(=O)C1` [(R)-4-((R)-1-(6-(2-tert-butylthiazol-4-yl)-3-methyl-3H-imidazo[4,5-c]pyridin-4-yloxy)ethyl)pyrrolidin-2-one]: the IC50 is 19.3 nM.
As for `C[C@@H](Oc1nc(-c2cnc(C(C)(C)C)s2)cc2ncn(C)c12)[C@H]1CNC(=O)C1` [(R)-4-((R)-1-(6-(2-tert-butylthiazol-5-yl)-3-methyl-3H-imidazo[4,5-c]pyridin-4-yloxy)ethyl)pyrrolidin-2-one], the IC50 came to 9.73 nM.
On to `C[C@@H](Oc1nc(-c2ccc3c(c2)NCCO3)cc2ncn(C)c12)[C@H]1CNC(=O)C1` [(R)-4-((R)-1-(6-(3,4-dihydro-2H-benzo[b][1,4]oxazin-6-yl)-3-methyl-3H-imidazo[4,5-c]pyridin-4-yloxy)ethyl)pyrrolidin-2-one], for which the IC50 turned out to be 4.03 nM.
As for `COc1ccc(-c2cc3ncn(CC(F)(F)F)c3c(O[C@H](C)[C@H]3CNC(=O)C3)n2)cc1OC` [(R)-4-((R)-1-(6-(3,4-dimethoxyphenyl)-3-(2,2,2-trifluoroethyl)-3H-imidazo[4,5-c]pyridin-4-yloxy)ethyl)pyrrolidin-2-one], the 50% inhibitory concentration (IC50) was 51.3 nM.
In the case of `COc1ccc(-c2cc3ncn(CF)c3c(O[C@H](C)[C@H]3CNC(=O)C3)n2)cc1OC` [(R)-4-((R)-1-(6-(3,4-dimethoxyphenyl)-3-(fluoromethyl)-3H-imidazo[4,5-c]pyridin-4-yloxy)ethyl)pyrrolidin-2-one], the IC50 was found to be 2.49 nM.
Turning to `COc1ccc(-c2cc3ncn(C4COC4)c3c(O[C@H](C)[C@H]3CNC(=O)C3)n2)cc1OC` [(R)-4-((R)-1-(6-(3,4-dimethoxyphenyl)-3-(oxetan-3-yl)-3H-imidazo[4,5-c]pyridin-4-yloxy)ethyl)pyrrolidin-2-one], the IC50 came to 54.1 nM.
The value for `CCn1cnc2cc(-c3ccc(OC)c(OC)c3)nc(O[C@H](C)[C@H]3CNC(=O)C3)c21` [(R)-4-((R)-1-(6-(3,4-dimethoxyphenyl)-3-ethyl-3H-imidazo[4,5-c]pyridin-4-yloxy)ethyl)pyrrolidin-2-one] was 3.05 nM.
